Assay results as given in ChEMBL document CHEMBL3046355, “Design, synthesis, and herbicidal activities of novel 2-cyanoacrylates containing isoxazole moieties” (2010).

Tests used:
Assay type in all cases: functional
Brassica napus [1] = assay: Herbicidal activity against Brassica napus (oilseed rape) assessed as inhibition of weed growth at 375 g/ha using postemergence treatment protocol; settings: post-emergence
Amaranthus retroflexus [2] = assay: Herbicidal activity against Amaranthus retroflexus assessed as inhibition of weed growth at 1.5 kg/ha using preemergence treatment protocol; settings: pre-emergence
Digitaria sanguinalis [3] = assay: Herbicidal activity against Digitaria sanguinalis (hairy crabgrass) assessed as inhibition of weed growth at 1.5 kg/ha using pre-emergence treatment protocol
Amaranthus retroflexus [4] = assay: Herbicidal activity against Amaranthus retroflexus assessed as inhibition of weed growth at 375 g/ha using postemergence treatment protocol; settings: post-emergence
Amaranthus retroflexus [5] = assay: Herbicidal activity against Amaranthus retroflexus assessed as inhibition of weed growth at 750 g/ha using postemergence treatment protocol; settings: post-emergence
Brassica napus [6] = assay: Herbicidal activity against Brassica napus (oilseed rape) assessed as inhibition of weed growth at 1.5 kg/ha using postemergence treatment protocol; settings: post-emergence
Echinochloa crus-galli [7] = assay: Herbicidal activity against Echinochloa crus-galli (barnyard grass) assessed as inhibition of weed growth at 1.5 kg/ha using postemergence treatment protocol; settings: post-emergence
Echinochloa crus-galli [8] = assay: Herbicidal activity against Echinochloa crus-galli (barnyard grass) assessed as inhibition of weed growth at 1.5 kg/ha using preemergence treatment protocol; settings: pre-emergence
Brassica napus [9] = assay: Herbicidal activity against Brassica napus (oilseed rape) assessed as inhibition of weed growth at 750 g/ha using postemergence treatment protocol; settings: post-emergence
Digitaria sanguinalis [10] = assay: Herbicidal activity against Digitaria sanguinalis (hairy crabgrass) assessed as inhibition of weed growth at 1.5 kg/ha using post-emergence treatment protocol
Amaranthus retroflexus [11] = assay: Herbicidal activity against Amaranthus retroflexus assessed as inhibition of weed growth at 1.5 kg/ha using postemergence treatment protocol; settings: post-emergence
Brassica napus [12] = assay: Herbicidal activity against Brassica napus (oilseed rape) assessed as inhibition of weed growth at 1.5 kg/ha using preemergence treatment protocol; settings: pre-emergence
Amaranthus retroflexus [13] = assay: Herbicidal activity against Amaranthus retroflexus assessed as inhibition of weed growth at 75 g/ha using postemergence treatment protocol; settings: post-emergence
Amaranthus retroflexus [14] = assay: Herbicidal activity against Amaranthus retroflexus assessed as inhibition of weed growth at 150 g/ha using postemergence treatment protocol; settings: post-emergence
Brassica napus [15] = assay: Herbicidal activity against Brassica napus (oilseed rape) assessed as inhibition of weed growth at 75 g/ha using postemergence treatment protocol; settings: post-emergence
Brassica napus [16] = assay: Herbicidal activity against Brassica napus (oilseed rape) assessed as inhibition of weed growth at 150 g/ha using postemergence treatment protocol; settings: post-emergence

| Structure (SMILES) | inhibition at 375 g/ha (Brassica napus [1]) [%] | inhibition at 1500 g/ha (Amaranthus retroflexus [2]) [%] | inhibition at 1500 g/ha (Digitaria sanguinalis [3]) [%] | inhibition at 375 g/ha (Amaranthus retroflexus [4]) [%] | inhibition at 750 g/ha (Amaranthus retroflexus [5]) [%] | inhibition at 1500 g/ha (Brassica napus [6]) [%] | inhibition at 1500 g/ha (Echinochloa crus-galli [7]) [%] | inhibition at 1500 g/ha (Echinochloa crus-galli [8]) [%] | inhibition at 750 g/ha (Brassica napus [9]) [%] | inhibition at 1500 g/ha (Digitaria sanguinalis [10]) [%] | inhibition at 1500 g/ha (Amaranthus retroflexus [11]) [%] | inhibition at 1500 g/ha (Brassica napus [12]) [%] | inhibition at 75 g/ha (Amaranthus retroflexus [13]) [%] | inhibition at 150 g/ha (Amaranthus retroflexus [14]) [%] | inhibition at 75 g/ha (Brassica napus [15]) [%] | inhibition at 150 g/ha (Brassica napus [16]) [%] |
| --- | --- | --- | --- | --- | --- | --- | --- | --- | --- | --- | --- | --- | --- | --- | --- | --- |
| CCOCCOC(=O)/C(C#N)=C(\NCc1cc(C(C)C)no1)SC | 52.3 | 25 | 0 | 0 | 37.6 | 100 | 32.6 | 0 | 76.9 | 48.4 | 94 | – | – | – | – | – |
| CCOCCOC(=O)/C(C#N)=C(\NCc1cc(Br)no1)SC | 87 | 0 | 0 | 0 | 0 | 100 | 36.8 | 2.4 | 93 | 55.3 | 99.1 | – | – | – | – | – |
| CCOCCOC(=O)/C(C#N)=C(\NCc1cc(-c2ccccc2)no1)SC | 17.8 | 67.7 | 0 | 7 | 34 | 100 | 57 | 0 | 100 | 55.5 | 100 | 15.8 | – | – | – | – |
| CCOCCOC(=O)/C(C#N)=C(\NCc1cc(-c2ccc(Cl)cc2)no1)SC | 0 | 23.1 | 14.8 | 4 | 22 | 100 | 58.2 | 0 | 0 | 72.7 | 89.9 | 28.4 | – | – | – | – |
| CCOCCOC(=O)/C(C#N)=C(\NCc1cc(-c2ccccc2OC)no1)C(C)C | 100 | 44.9 | 5.5 | 100 | 100 | 100 | 56.4 | 0 | 100 | 82 | 95.1 | 17.4 | 17.4 | 23.9 | 17.1 | 27 |
| CCOCCOC(=O)/C(C#N)=C(\NCc1cc(-c2ccc(C(C)(C)C)cc2)no1)SC | 9.8 | 10 | 0 | 28.3 | 45.7 | 100 | 0 | 0 | 22.2 | 55.8 | 100 | 0 | – | – | – | – |
| CCOCCOC(=O)/C(C#N)=C(\NCc1cc(-c2ccccc2Cl)no1)C(C)C | 100 | 0 | 0 | 96 | 98.3 | 100 | 47.2 | 0 | 100 | 24 | 100 | – | 77 | 94.4 | 100 | 100 |
| CCOCCOC(=O)/C(C#N)=C(\NCc1cc(C(C)C)no1)C(C)C | 97.7 | 100 | 0 | 54.6 | 100 | 100 | 12.5 | 5 | 100 | 48.4 | 100 | – | 0 | 0 | 52 | 92.8 |
| CCOCCOC(=O)/C(C#N)=C(\NCc1cc(Br)no1)C(C)C | 100 | 60 | 0 | 100 | 100 | 100 | 66.5 | 22.6 | 100 | 42.1 | 100 | – | 46.5 | 90 | 100 | 100 |
| CCOCCOC(=O)/C(C#N)=C(\NCc1cc(-c2ccc(Cl)cc2Cl)no1)SC | 0 | 65.8 | 15.6 | 0 | 46 | 100 | 45.2 | 0 | 0 | 64.1 | 89.9 | 45 | – | – | – | – |
| CCOCCOC(=O)/C(C#N)=C(\NCc1cc(-c2ccccc2OC)no1)SC | 15.8 | 47.8 | 17.3 | 0 | 16 | 100 | 52 | 0 | 43.8 | 52.3 | 90.6 | 19 | – | – | – | – |
| CCOCCOC(=O)/C(C#N)=C(\NCc1cc(-c2ccc(C(C)(C)C)cc2)no1)C(C)C | 41.7 | 0 | 0 | 54.3 | 89.1 | 100 | 0 | 0 | 85.8 | 24.7 | 100 | 0 | – | – | – | – |
| CCOCCOC(=O)/C(C#N)=C(\NCc1cc(-c2ccc(OC)cc2)no1)SC | 57.5 | 0 | 0 | 34.8 | 87 | 100 | 0 | 0 | 94.6 | 32.5 | 100 | 10 | – | – | – | – |
